Test results published in patent US9353116B2, “Methods and compositions for kinase inhibition” (THE REGENTS OF THE UNIVERSITY OF CALIFORNIA, priority 2010, dated 2016).
Where two headings read alike, the source gives them in different places.

Tests used:
T338C c-Src [1] = molecular target: T1, T338C c-Src (Gallus gallus (Chicken), UniProt P00523, T338C); assay: In vitro kinase assay, T338C c-Src (c-Src-ES1); assay type: biochemical
Protocol: In vitro kinase assays for c-Src variants were performed in 50 mM Tris (pH 8.0), 10 mM MgCl2 and 1 mg/mL BSA. When obtaining kinetic parameters (kcat, Km) kinase and peptide substrate (IYGEFKKK) (SEQ ID NO:51) concentrations were 2 nM and 500 μM, respectively, while ATP concentrations ranged from 2000-0.655 μM. Addition of nonradioactive ATP supplemented with ^32P ATP (3,000 Ci/mmol, NEN) was used to initiate kinase reactions. Time points were selected such that product formation never exceeded 10%. Reactions were quenched by spotting 3 μL quantities onto phosphocellulose sheets (P81, Whatman). Afterwards, the sheets were washed 3×5 minutes in 0.5% phosphoric acid and dried. Radioactivity was measured by phosphorimaging and recorded on a Typhoon fluorescence imager (Molecular Dynamics). Data were plotted as rate (min^−1) versus ATP concentration and fitted to the Michaelis-Menten equation, v=[(kcat)[S]]/(Km+[S]), using Kaleidagraph software (Synergy) to extract kinetic parameters. When obtaining IC50 values for the inhibitors, 2% (v/v) DMSO was included in kinase reactions. In these cases ATP, peptide, and enzyme concentrations were 15 nM, 100 μM and 5 nM, respectively, while inhibitor concentrations ranged from 10,000-0.610 nM. […] The data was fitted to a sigmoidal dose-response curve using Prism 4.0c (GraphPad Software) to obtain IC50 values.

v-Src-ES1 (I338C) = v-Src-ES1 (I338C) (Rous sarcoma virus (strain H-19), UniProt P25020, I338C); assay: Inhibition assay with v-Src-ES1 transformed NIH-3T3 cells; assay type: cell-based
Protocol: (§1) Curr Biol 8(5):257-266. Cells were grown to 60-90% confluence in DMEM supplemented with fetal bovine serum (10%), penicillin ‘G’ (100 units/ml) and streptomycin sulfate (100 μg/ml) (PenStrep, UCSF Cell Culture Facility) prior to treatment with kinase inhibitors dissolved in DMSO (final DMSO concentration, 0.5%). Following 1 hour of incubation with inhibitors at 37° C., cells were harvested in lysis buffer (50 mM Tris (pH 7.4), 300 mM NaCl, 5 mM EDTA, 1% triton, 0.02% NaN3, 1× complete mini protease inhibitor (Roche), 1 mM PMSF, 1×PHOS-stop (Roche), 0.02 μM microcystin, 2 mM sodium orthovanadate), normalized for concentration and analyzed by Western blot for global phosphotyrosine levels (4G10, Millipore, 1:1000). Levels of β-actin (β-actin Antibody, Cell Signaling, 1:1000) and v-Src (Src 32G6 rabbit mAb, Cell Signaling, 1:1000) were ascertained by Western blot.
(§2) I338C (v-Src-ES1, SEQ ID NO:48), I338T (SEQ ID NO:49), I338G (v-Src-AS1, SEQ ID NO:50) and WT v-Src-transformed NIH-3T3 cell lines were generated. Unlike c-Src, v-Src is constitutively active and harbors an isoleucine gatekeeper. The I338T v-Src variant was generated for consistency with the in vitro c-Src studies. For each cell line, global levels of phosphotyrosine were analyzed (FIG. 7). […]

I338T v-Src = I338T v-Src (Rous sarcoma virus (strain H-19), UniProt P25020, I338T); assay type: cell-based
Protocol: as §1, §2

c-Src-ES3 (T338C/V323S) = c-Src-ES3 (T338C/V323S) (Gallus gallus (Chicken), UniProt P00523, T338C/V323S); assay: In vitro kinase assay, c-Src-ES3; assay type: biochemical
Protocol: (§3) In vitro kinase assays for c-Src variants were performed in 50 mM Tris (pH 8.0), 10 mM MgCl2 and 1 mg/mL BSA. When obtaining kinetic parameters (kcat, Km) kinase and peptide substrate (IYGEFKKK) (SEQ ID NO:51) concentrations were 2 nM and 500 μM, respectively, while ATP concentrations ranged from 2000-0.655 μM. Addition of nonradioactive ATP supplemented with ^32P ATP (3,000 Ci/mmol, NEN) was used to initiate kinase reactions. Time points were selected such that product formation never exceeded 10%. Reactions were quenched by spotting 3 μL quantities onto phosphocellulose sheets (P81, Whatman). Afterwards, the sheets were washed 3×5 minutes in 0.5% phosphoric acid and dried. Radioactivity was measured by phosphorimaging and recorded on a Typhoon fluorescence imager (Molecular Dynamics). Data were plotted as rate (min^−1) versus ATP concentration and fitted to the Michaelis-Menten equation, v=[(kcat)[S]]/(Km+[S]), using Kaleidagraph software (Synergy) to extract kinetic parameters. When obtaining IC50 values for the inhibitors, 2% (v/v) DMSO was included in kinase reactions. In these cases ATP, peptide, and enzyme concentrations were 15 nM, 100 μM and 5 nM, respectively, while inhibitor concentrations ranged from 10,000-0.610 nM. In all cases, a ten-minute preincubation step between the kinase and the inhibitor preceded addition of ATP and a fifteen-minute reaction. The data was fitted to a sigmoidal dose-response curve using Prism 4.0c (GraphPad Software) to obtain IC50 values.

WT c-Src = WT c-Src (Gallus gallus (Chicken), UniProt P00523); assay: In vitro kinase assay, WT c-Src; assay type: biochemical; conditions: inhibitor preincubated with Src ten minutes prior to addition of ATP; read-out: WT c-Src IC50
Protocol: as §3

c-Src-ES2 (T338C/V323A) = c-Src-ES2 (T338C/V323A) (Gallus gallus (Chicken), UniProt P00523, T338C/V323A); assay: In vitro kinase assay, c-Src-ES2; assay type: biochemical
Protocol: as §3

T338C c-Src [2] = molecular target: T1, T338C c-Src; assay: Full protein mass spectrometry of covalent labeling; assay type: binding; conditions: two equivalents of inhibitor
Protocol: Protein labeling conditions: Kinase labeling reactions were performed by incubating 30 μL quantities of c-Src variants (in 50 mM Tris pH 8, 100 mM NaCl, 1 mM DTT, 5% glycerol) with two equivalents of inhibitor in DMSO (final DMSO concentration=2.4%). The covalent labeling reaction was quenched by removing 4 μL and adding it to 31 μL of 0.1% formic acid. The sample was then analyzed by ES1-oa-TOF mass spectrometry.

How did the “time dependence of inhibition of T338C c-Src” value (T338C c-Src [1]) turn out when `CC(C)n1nc(Cc2cccc(C(=O)CF)c2)c2c(N)ncnc21` [Compound 13, 1-(3-((4-amino-1-isopropyl-1H-pyrazolo[3,4-d]pyrimidin-3-yl)methyl)phenyl)-2-fluoroethanone] was run?
The value was “time-dependent manner”.

And the IC50 (T338C c-Src [1]; ES1 = T338C, read-out: c-Src variant IC50 (nM) ES1)?
Its IC50 is 338 nM.

What about the “fold more potent than the corresponding ketone 14” value (T338C c-Src [1]; T338C c-Src) of the same compound?
Its value is > 13 fold.

And the IC50 (T338C c-Src [1]; T338C c-Src IC50 (nM), preincubation time 2 min)?
Its IC50 is 1280 nM.

What about the IC50 (T338C c-Src [1]; T338C c-Src IC50 (nM), preincubation time 20 min) of the same compound?
The IC50 was 318 nM.

What about the IC50 (T338C c-Src [1]; T338C c-Src IC50 (nM), preincubation time 40 min) of the same compound?
The IC50 was 136 nM.

What about the IC50 (T338C c-Src [1]; inhibitor preincubated with Src ten minutes prior to addition of ATP, read-out: T338C c-Src IC50) of the same compound?
The IC50 was 338 nM.

What about the “inhibition of v-Src-ES1 in cells (global phosphotyrosine levels)” value (v-Src-ES1 (I338C)) of the same compound?
Its value is “inhibited v-Src-ES1 in a dose-dependent manner”.

What about the “inhibition of I338T v-Src in cells (global phosphotyrosine levels)” value (I338T v-Src) of the same compound?
The value was “neither 9 nor 13 inhibited I338T v-Src”.

And the IC50 (c-Src-ES3 (T338C/V323S); ES3 = T338C/V323S, read-out: c-Src variant IC50 (nM) ES3)?
Its IC50 is 29 nM.

What about the “fold improvement in potency with V323S mutation” value (c-Src-ES3 (T338C/V323S); c-Src-ES3 relative to c-Src-ES1) of the same compound?
The value was 12 fold.

What about the IC50 (WT c-Src) of the same compound?
The IC50 was > 5000 nM.

What about the IC50 (c-Src-ES2 (T338C/V323A); ES2 = T338C/V323A, read-out: c-Src variant IC50 (nM) ES2) of the same compound?
The IC50 was 67 nM.

And the “change of inhibitor potency upon second-site Val323 mutations” value (c-Src-ES2 (T338C/V323A); c-Src-ES2 and c-Src-ES3 relative to c-Src-ES1)?
Its value is “Enhanced inhibitor potency”.

And the “fold increase in potency with V323A mutation” value (c-Src-ES2 (T338C/V323A); c-Src-ES2 relative to c-Src-ES1)?
The value was 5 fold.

What about the “covalent labeling / adduct formation by full protein mass spectrometry” value (T338C c-Src [2]) of the same compound?
Its value is “not observed”.
